The source of these data is PMC7614232 (Organic & biomolecular chemistry, 2022).

The test system of data set [1] is dGMII (Golgi α-mannosidase II). The note with it: previous pKa calculations; cited from earlier work.
The conditions of data set [2]: in aqueous solution; cited from earlier work.
In data set [3] the target is T1, AMAN-2 (Golgi α-mannosidase) (Caenorhabditis elegans, UniProt Q2PJ74).
T1 sequence (Q2PJ74 27-1145): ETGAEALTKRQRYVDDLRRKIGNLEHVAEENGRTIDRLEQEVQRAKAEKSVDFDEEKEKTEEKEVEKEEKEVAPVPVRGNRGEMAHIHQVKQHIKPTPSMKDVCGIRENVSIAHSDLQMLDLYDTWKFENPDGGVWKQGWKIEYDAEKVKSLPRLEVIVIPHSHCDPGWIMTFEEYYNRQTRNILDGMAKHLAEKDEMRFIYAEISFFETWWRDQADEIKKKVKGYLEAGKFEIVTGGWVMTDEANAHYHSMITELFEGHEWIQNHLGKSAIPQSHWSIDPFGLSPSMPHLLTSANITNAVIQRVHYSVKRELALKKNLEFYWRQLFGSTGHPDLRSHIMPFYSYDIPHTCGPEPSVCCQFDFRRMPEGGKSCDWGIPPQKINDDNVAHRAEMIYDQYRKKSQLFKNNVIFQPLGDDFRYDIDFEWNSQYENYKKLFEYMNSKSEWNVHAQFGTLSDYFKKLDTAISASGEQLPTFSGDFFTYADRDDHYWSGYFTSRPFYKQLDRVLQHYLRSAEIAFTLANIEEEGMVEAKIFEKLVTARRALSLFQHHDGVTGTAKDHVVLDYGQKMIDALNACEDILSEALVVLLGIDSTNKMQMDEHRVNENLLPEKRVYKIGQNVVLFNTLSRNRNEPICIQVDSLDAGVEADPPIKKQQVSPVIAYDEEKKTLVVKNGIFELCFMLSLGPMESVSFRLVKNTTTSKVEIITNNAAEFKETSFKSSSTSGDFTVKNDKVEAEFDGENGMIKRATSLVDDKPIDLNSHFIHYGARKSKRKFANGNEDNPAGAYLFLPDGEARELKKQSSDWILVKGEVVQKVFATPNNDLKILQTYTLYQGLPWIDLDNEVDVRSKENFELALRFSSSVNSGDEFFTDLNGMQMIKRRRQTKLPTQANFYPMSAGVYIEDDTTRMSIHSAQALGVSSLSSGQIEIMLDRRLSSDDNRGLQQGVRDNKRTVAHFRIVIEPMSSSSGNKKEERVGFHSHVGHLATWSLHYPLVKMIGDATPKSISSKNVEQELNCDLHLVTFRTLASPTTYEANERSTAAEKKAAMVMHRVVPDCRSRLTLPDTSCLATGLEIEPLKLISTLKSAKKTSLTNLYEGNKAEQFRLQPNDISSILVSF
In words: α-mannosidase inhibition assay with pNP-Man, AMAN-2. As to conditions: for SI^b = IC50(JBMan)/IC50(AMAN-2): selectivity index. The class given is biochemical.

The target of data set [4] is T2, GMIIb (Golgi α-mannosidase) (Drosophila melanogaster, UniProt Q9VF33).
T2 sequence (Q9VF33 31-1249): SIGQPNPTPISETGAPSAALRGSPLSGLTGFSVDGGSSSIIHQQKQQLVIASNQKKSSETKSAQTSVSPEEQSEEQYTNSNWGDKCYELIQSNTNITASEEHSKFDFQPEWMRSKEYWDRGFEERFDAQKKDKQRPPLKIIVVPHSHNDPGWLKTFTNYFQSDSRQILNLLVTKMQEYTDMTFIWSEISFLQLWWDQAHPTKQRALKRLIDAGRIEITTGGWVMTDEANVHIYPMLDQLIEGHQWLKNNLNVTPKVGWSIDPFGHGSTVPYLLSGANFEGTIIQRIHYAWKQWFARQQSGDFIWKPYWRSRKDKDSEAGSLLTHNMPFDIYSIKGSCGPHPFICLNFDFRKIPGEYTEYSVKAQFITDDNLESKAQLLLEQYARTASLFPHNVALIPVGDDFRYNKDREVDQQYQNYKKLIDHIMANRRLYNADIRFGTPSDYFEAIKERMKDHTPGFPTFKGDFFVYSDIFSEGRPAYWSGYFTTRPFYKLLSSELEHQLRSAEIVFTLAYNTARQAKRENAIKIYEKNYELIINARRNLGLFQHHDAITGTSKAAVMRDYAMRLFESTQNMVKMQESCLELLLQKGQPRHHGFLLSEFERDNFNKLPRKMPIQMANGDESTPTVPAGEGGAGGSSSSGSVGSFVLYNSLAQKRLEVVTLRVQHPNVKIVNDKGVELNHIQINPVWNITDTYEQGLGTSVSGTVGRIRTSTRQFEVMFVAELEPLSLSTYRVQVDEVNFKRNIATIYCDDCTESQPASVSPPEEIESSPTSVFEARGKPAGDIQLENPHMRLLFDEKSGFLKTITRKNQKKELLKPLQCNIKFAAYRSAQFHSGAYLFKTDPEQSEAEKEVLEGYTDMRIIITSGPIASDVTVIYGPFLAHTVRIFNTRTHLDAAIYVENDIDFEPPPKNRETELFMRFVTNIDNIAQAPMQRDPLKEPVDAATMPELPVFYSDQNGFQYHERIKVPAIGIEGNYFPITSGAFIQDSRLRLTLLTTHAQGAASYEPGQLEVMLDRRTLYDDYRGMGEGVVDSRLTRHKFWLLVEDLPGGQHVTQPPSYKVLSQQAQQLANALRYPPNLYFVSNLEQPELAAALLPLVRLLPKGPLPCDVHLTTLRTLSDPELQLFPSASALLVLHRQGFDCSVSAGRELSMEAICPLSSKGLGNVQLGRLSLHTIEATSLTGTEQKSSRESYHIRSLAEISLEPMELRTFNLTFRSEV
In words: α-mannosidase inhibition assay with pNP-Man, GMIIb. The note with it: for SI^a = IC50(LManII)/IC50(GMIIb): selectivity index. The class given is biochemical.

Molecules are shown by their SMILES.

Take `O[C@H]1[C@H]2[C@H](O)CCCN2C[C@H]1O` [Swainsonine, (1S,2R,8R,8aR)-trihydroxy-indolizidine]: the “pKa bound in complex with dGMII” value in data set [1] is listed as 5.0. Further, in data set [2], the pKa was 7.5.
`OC[C@@H](O)[C@H]1NC[C@@H](O)[C@H]1O` [DIM, 1,4-dideoxy-1,4-imino-D-mannitol, reference compound]: the Ki in data set [3] (read-out: Ki AMAN-2, Dixon plots, pNP-Man 0.5-4 mM, pH 6.0) was found to be 680 nM; in data set [4] (read-out: Ki GMIIb, Dixon plots, pNP-Man 0.5-4 mM, pH 6.0) it was 130 nM. Besides, in data set [3], the “SI^b = IC50(JBMan)/IC50(AMAN-2)” value is on record as 1. The “SI^a = IC50(LManII)/IC50(GMIIb)” value in data set [4] is listed as 13.
As for `Cl.OC[C@H]1NC[C@@H](O)[C@H]1O` [Compound 6, 1,4-Dideoxy-1,4-imino-d-lyxitol hydrochloride], the “SI^b = IC50(JBMan)/IC50(AMAN-2)” value in data set [3] turned out to be 5. The “SI^a = IC50(LManII)/IC50(GMIIb)” value in data set [4] is on record as 8.

As a reminder, the pKa is the negative logarithm of the acid dissociation constant. The term Ki denotes the dissociation constant of the complex between target and ligand, obtained from inhibition or displacement.
